According to US20210122730A1, “GLUCOCORTICOID RECEPTOR MODULATORS” (ORIC Pharmaceuticals, Inc., priority 2017, published 2021):

Tests used:
CYP2C8 = biological target: T1, CYP2C8 (Homo sapiens, UniProt P10632); experiment: CYP Inhibition Assay (CYP2C8, human liver microsomes, paclitaxel substrate); type: in vitro ADME; conditions: pH 7.4; pooled human liver microsomes 0.1 mg/mL, probe substrate paclitaxel
T1 construct: Pooled human microsomes were obtained from Sekisui XenoTech, KS; tissue Sekisui XenoTech, KS; host or cells: pooled human liver microsomes
T1 sequence (P10632 1-490): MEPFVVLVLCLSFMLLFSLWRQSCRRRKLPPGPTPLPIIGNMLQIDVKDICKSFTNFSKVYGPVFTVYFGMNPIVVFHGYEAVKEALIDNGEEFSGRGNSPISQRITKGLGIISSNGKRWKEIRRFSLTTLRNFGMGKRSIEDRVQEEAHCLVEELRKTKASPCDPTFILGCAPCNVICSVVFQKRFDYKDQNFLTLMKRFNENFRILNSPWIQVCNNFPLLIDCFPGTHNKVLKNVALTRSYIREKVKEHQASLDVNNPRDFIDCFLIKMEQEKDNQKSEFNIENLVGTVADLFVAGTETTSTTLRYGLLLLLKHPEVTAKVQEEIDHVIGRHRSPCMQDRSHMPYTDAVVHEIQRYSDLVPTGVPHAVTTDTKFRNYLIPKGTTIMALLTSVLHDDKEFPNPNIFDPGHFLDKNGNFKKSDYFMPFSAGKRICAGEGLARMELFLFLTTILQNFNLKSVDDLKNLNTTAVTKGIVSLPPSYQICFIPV
Method: Example B: CYP Inhibition Assay
Objective: To assess the % inhibition of test compounds against CYP2C8 enzyme in human liver microsomes.
Pooled human microsomes were obtained from Sekisui XenoTech, KS, and were used for in vitro assessment of compound inhibitory potential of the major drug metabolizing human CYP enzymes.
Test compounds were dissolved in DMSO as 10 mM stock solutions and diluted to 200 µM in acetonitrile as working solutions. The total concentrations of DMSO and acetonitrile were 0.02% and 0.5%, respectively, in the assay.
The assay was performed in duplicate in a 96-well plate. The reaction mixture ([…]) containing a final concentration of 0.1 mg/mL pooled human liver microsomes, 50 mM potassium phosphate, pH 7.4 buffer, was re-warmed at 37° C. for 5 minutes. The reaction was initiated with NADPH solution which was at 1 mM final concentration, and carried out for 5 minutes at 37° C. It was terminated by the addition of 3-fold volume of quench solution (1:1 acetonitrile:methanol with 0.1% formic acid and the internal standard of tolbutamide). The sample was vortexed, centrifuged at 4,000 rpm for 15 min at 4° C. The incubation in the presence of vehicle (0.02% DMSO and 0.5% acetonitrile) was used as the enzyme activity control. The analyses of metabolite 6α-hydroxypaclitaxel in supernatant was performed with LC-MS/MS method (Sciex API 4500 Qtrap coupled to a Shimadzu LC-20AD HPLC).
The CYP enzyme activity was determined based on the formation of 6a-hydroxypaclitaxel metabolite. The % inhibition was calculated using this equation: % Inhibition=100×(1−Ainactivator/Avehicle), where Ainactivator is the CYP enzyme activity in the presence of test compound, and Avehicle is the CYP activity in the presence of vehicle.

GR = biological target: T2, GR (Homo sapiens, UniProt P04150); experiment: In Vitro GR Luciferase Reporter Assay (antagonist mode, CHO-K1-GR-MMTV-Luc reporter cells); type: cell-based; conditions: antagonist mode, 10 nM Dexamethasone
T2 construct: expressed in transfected cells; host or cells: CHO-K1
T2 sequence (P04150 1-777): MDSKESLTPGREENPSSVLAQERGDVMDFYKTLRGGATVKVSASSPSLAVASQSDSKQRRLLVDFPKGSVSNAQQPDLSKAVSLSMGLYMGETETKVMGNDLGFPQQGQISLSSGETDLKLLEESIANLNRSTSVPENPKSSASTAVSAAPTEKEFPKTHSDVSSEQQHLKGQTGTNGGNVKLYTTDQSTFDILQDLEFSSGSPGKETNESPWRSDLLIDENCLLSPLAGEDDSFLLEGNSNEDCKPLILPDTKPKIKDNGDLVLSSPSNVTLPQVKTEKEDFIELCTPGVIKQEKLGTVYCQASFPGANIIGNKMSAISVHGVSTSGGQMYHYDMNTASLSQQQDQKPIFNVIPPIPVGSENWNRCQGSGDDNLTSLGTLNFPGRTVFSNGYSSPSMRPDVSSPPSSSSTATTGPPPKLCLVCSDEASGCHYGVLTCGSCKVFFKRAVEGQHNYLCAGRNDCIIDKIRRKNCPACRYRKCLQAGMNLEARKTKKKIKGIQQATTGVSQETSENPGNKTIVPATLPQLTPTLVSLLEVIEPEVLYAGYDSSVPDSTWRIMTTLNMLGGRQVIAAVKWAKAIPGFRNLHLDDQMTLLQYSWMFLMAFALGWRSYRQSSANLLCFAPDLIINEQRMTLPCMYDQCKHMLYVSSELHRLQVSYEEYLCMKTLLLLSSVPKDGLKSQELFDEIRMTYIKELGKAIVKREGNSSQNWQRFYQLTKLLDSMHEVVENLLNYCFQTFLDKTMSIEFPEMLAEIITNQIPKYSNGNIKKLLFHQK
Summary of the method: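 Antagonist mode: compounds (8 serial 1:5 dilutions) added to GR-MMTV-luciferase CHO-K1 reporter cells co-exposed to 10 nM dexamethasone final, in phenol red-free DMEM plus 10% CSS. After roughly 18-24 h at 37° C, OneGlo luminescence read and IC50 calculated.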

inhibition at 5 min (CYP2C8) [%]	IC50 (GR) [nM]	SMILES
50 to 75	≤ 100	Cn1ccc(S(=O)(=O)N(C2CC2)[C@H]2CCC3=Cc4c(cnn4-c4ccc(F)cc4)C[C@]3(C(=O)c3ncc(C(F)(F)F)s3)C2)n1 [Example 164, N-cyclopropyl-N-((4aS,6S)-1-(4-fluorophenyl)-4a-(5 (trifluoromethyl)thiazole-2-carbonyl)-4,4a,5,6,7,8-hexahydro-1H-benzo[f]indazol-6-yl)-1-methyl-1H-pyrazole-3-sulfonamide]
25 to 50	≤ 100	CCN([C@H]1CCC2=Cc3c(cnn3-c3ccc(F)cc3)C[C@]2(C(=O)c2cc(C(F)(F)F)ccn2)C1)S(=O)(=O)c1cnn(C(F)F)c1 [Example 166, 1-(difluoromethyl)-N-ethyl-N-((4aS,6S)-1-(4-fluorophenyl)-4a-(4-(trifluoromethyl)picolinoyl)-4,4a,5,6,7,8-hexahydro-1H-benzo[f]indazol-6-yl)-1H-pyrazole-4-sulfonamide]
≤ 25	≤ 100	CN([C@H]1CCC2=Cc3c(cnn3-c3ccc(F)cc3)C[C@]2(C(=O)c2cc(C(F)(F)F)ccn2)C1)S(=O)(=O)c1cn(C)nn1 [Example 170, N-((4aS,6S)-1-(4-fluorophenyl)-4a-(4-(trifluoromethyl)picolinoyl)-4,4a,5,6,7,8-hexahydro-1H-benzo[f]indazol-6-yl)-N,1-dimethyl-1H-1,2,3-triazole-4-sulfonamide]
25 to 50	≤ 100	Cn1cc(S(=O)(=O)N(C2CC2)[C@H]2CCC3=Cc4c(cnn4-c4ccc(F)cc4)C[C@]3(C(=O)c3ncc(C(F)(F)F)s3)C2)cn1 [Example 176, N-cyclopropyl-N-((4aS,6S)-1-(4-fluorophenyl)-4a-(5 (trifluoromethyl)thiazole-2-carbonyl)-4,4a,5,6,7,8-hexahydro-1H-benzo[f]indazol-6-yl)-1-methyl-1H-pyrazole-4-sulfonamide]

More lines, now with the values behind:

SMILES	inhibition at 5 min (CYP2C8) [%]	IC50 (GR) [nM]
Cn1ccc(S(=O)(=O)[C@@]2(F)CCC3=Cc4c(cnn4-c4ccc(F)cc4)C[C@]3(C(=O)c3cc(C(F)(F)F)ccn3)C2)n1 [Example 114, ((4aS,6S)-6-Fluoro-1-(4-fluorophenyl)-6-((1-methyl-1H-pyrazol-3-yl)sulfonyl)-1,4,5,6,7,8-hexahydro-4aH-benzo[f]indazol-4a-yl)(4-(trifluoromethyl)pyridin-2-yl)methanone]	≤ 25	≤ 100
CN([C@H]1CCC2=Cc3c(cnn3-c3ccc(F)cc3)C[C@]2(C(=O)c2ncc(C(F)(F)F)s2)C1)S(=O)(=O)c1cnn(C)c1 [Example 131, N-((4aS,6S)-1-(4-fluorophenyl)-4a-(5-(trifluoromethyl)thiazole-2-carbonyl)-4,4a,5,6,7,8-hexahydro-1H-benzo[f]indazol-6-yl)-N,1-dimethyl-1H-pyrazole-4-sulfonamide]	50 to 75	≤ 100
CN([C@H]1CCC2=Cc3c(cnn3-c3ccc(F)cc3)C[C@]2(C(=O)c2ncc(C3CC3)s2)C1)S(=O)(=O)c1cnn(C)c1 [Example 134, N-((4aS,6S)-4a-(5-cyclopropylthiazole-2-carbonyl)-1-(4-fluorophenyl)-4,4a,5,6,7,8-hexahydro-1H-benzo[f]indazol-6-yl)-N,1-dimethyl-1H-pyrazole-4-sulfonamide]	75 to 90	≤ 100
CN([C@H]1CCC2=Cc3c(cnn3-c3ccc(F)cc3)C[C@]2(C(=O)c2ncc(C3CC3)s2)C1)S(=O)(=O)c1ccn(C)n1 [Example 140, N-((4aS,6S)-4a-(5-cyclopropylthiazole-2-carbonyl)-1-(4-fluorophenyl)-4,4a,5,6,7,8-hexahydro-1H-benzo[f]indazol-6-yl)-N,1-dimethyl-1H-pyrazole-3-sulfonamide]	75 to 90	≤ 100
Cn1ncc(S(=O)(=O)N(C2CC2)[C@H]2CCC3=Cc4c(cnn4-c4ccc(F)cc4)C[C@]3(C(=O)c3cc(C(F)(F)F)ccn3)C2)n1 [Example 142, N-cyclopropyl-N-((4aS,6S)-1-(4-fluorophenyl)-4a-(4-(trifluoromethyl)picolinoyl)-4,4a,5,6,7,8-hexahydro-1H-benzo[f]indazol-6-yl)-2-methyl-2H-1,2,3-triazole-4-sulfonamide]	50 to 75	≤ 100
CN([C@H]1CCC2=Cc3c(cnn3-c3ccc(F)cc3)C[C@]2(C(=O)c2ncc(C(F)(F)F)s2)C1)S(=O)(=O)c1ccn(C)n1 [Example 144, N-((4aS,6S)-1-(4-fluorophenyl)-4a-(5-(trifluoromethyl)thiazole-2-carbonyl)-4,4a,5,6,7,8-hexahydro-1H-benzo[f]indazol-6-yl)-N,1-dimethyl-1H-pyrazole-3-sulfonamide]	75 to 90	≤ 100
CCN([C@H]1CCC2=Cc3c(cnn3-c3ccc(F)cc3)C[C@]2(C(=O)c2ncc(C(F)(F)F)s2)C1)S(=O)(=O)c1cnn(C)c1 [Example 153, N-ethyl-N-((4aS,6S)-1-(4-fluorophenyl)-4a-(5-(trifluoromethyl)thiazole-2-carbonyl)-4,4a,5,6,7,8-hexahydro-1H-benzo[f]indazol-6-yl)-1-methyl-1H-pyrazole-4-sulfonamide]	50 to 75	≤ 100
CCN([C@H]1CCC2=Cc3c(cnn3-c3ccc(F)cc3)C[C@]2(C(=O)c2cc(C(F)(F)F)ccn2)C1)S(=O)(=O)c1ccn(C)n1 [Example 155, N-ethyl-N-((4aS,6S)-1-(4-fluorophenyl)-4a-(4-(trifluoromethyl)picolinoyl)-4,4a,5,6,7,8-hexahydro-1H-benzo[f]indazol-6-yl)-1-methyl-1H-pyrazole-3-sulfonamide]	25 to 50	≤ 100
CN([C@H]1CCC2=Cc3c(cnn3-c3ccc(F)cc3)C[C@]2(C(=O)c2cc(C(F)(F)F)ccn2)C1)S(=O)(=O)c1ccnn1C [Example 156, N-((4aS,6S)-1-(4-fluorophenyl)-4a-(4-(trifluoromethyl)picolinoyl)-4,4a,5,6,7,8-hexahydro-1H-benzo[f]indazol-6-yl)-N,1-dimethyl-1H-pyrazole-5-sulfonamide]	75 to 90	≤ 100
Cn1ccc(S(=O)(=O)N(C2CC2)[C@H]2CCC3=Cc4c(cnn4-c4ccc(F)cc4)C[C@]3(C(=O)c3ncc(C4CC4)s3)C2)n1 [Example 160, N-cyclopropyl-N-((4aS,6S)-4a-(5-cyclopropylthiazole-2-carbonyl)-1-(4-fluorophenyl)-4,4a,5,6,7,8-hexahydro-1H-benzo[f]indazol-6-yl)-1-methyl-1H-pyrazole-3-sulfonamide]	50 to 75	≤ 100
